Consider 2 compounds from patent US20160324820A1, “PHARMACEUTICAL COMPOSITIONS COMPRISING 15-HEPE AND METHODS OF TREATING ASTHMA AND LUNG DISORDERS USING SAME” (Dignity Sciences Limited, priority 2014, published 2016).

In this experiment the test system is Hartley guinea pigs. As to the kind of experiment: Histamine-induced bronchoconstriction following seven days of oral gavage in anesthetized, ventilated guinea pigs. Type of experiment: in vivo, guinea pig. To be noted: for Change from baseline Respiratory Resistance (ventilator pressure), Average VP / Change from baseline Respiratory Resistance (ventilator pressure), Average RR: n=3. From the text:
In an embodiment, the pharmacodynamics of a composition comprising 15-HEPE as disclosed herein may be examined using a model of a lung disease or disorder. In a more detailed embodiment, the effects of a composition comprising a vehicle, a positive control or 15-HEPE on ventilator pressure in histamine challenged guinea pigs serves as a model for the pharmacodynamics in asthma. In an exemplary method, guinea pigs are first dosed with compositions comprising a vehicle, a positive control or 15-HEPE for seven days. The treated guinea pigs can then be anesthetized and exposed to a nebulized bronchoconstictor to determine if 15-HEPE can reduce the increase in ventilatory pressure induced by a bronchoconstrictor. This serves as an effective model for asthma and other lung diseases. The guinea pig is a reliable animal model in respiratory research due to their respiratory sensitivity and their expression of similar respiratory reactions to those observed in humans. […] Adult male Hartley guinea pigs weighing approximately 450-500 g were acclimated least 5 days before the day of the beginning of the oral gavages. Animals were assigned to one of four groups (low dose, high dose, vehicle and positive control) and were double-housed per group during acclimation period. The test article was formulated using olive oil as the vehicle. A low and a high dose of 15-HEPE (50 mg/kg and 500 mg/kg) was formulated. A 1 mg/ml stock solution of bambuterol was prepared in an aqueous solution, and was then mixed with olive oil in the gavage syringe for the […]. The stock solution was stored at −20° C., but was used at room temperature and was considered stable for the duration of the experiment. A 5 μg/ml stock solution of histamine dihydrochloride (Sigma Aldrich) was prepared in a saline solution (0.9% NaCl). The stock solution was stored at 4° C. The expiration date was set at 14 days after preparation. The concentrations of positive control, (bambuterol 0.27 mg/kg/day) and the hypertensor (histamine 0.184, 0.919 and 1.84 μg/kg) were selected based on literature references. Each group received the designated compound by oral gavage using a 1 ml syringe. The dosing schedule was as follows: • Vehicle (olive oil) • Bambuterol 0.27 mg/kg/day • 15-HEPE 50 mg/kg/day • 15-HEPE 500 mg/kg/day The stock solutions were administered once per day for seven consecutive days. On the seventh dosage day the animals underwent surgery two hours after the oral feeding. All animal care and vivarium maintenance were recorded, with documents kept at the test facility. Guinea pigs were anesthetized with an intraperitoneal injection of urethane (1.5 g/kg). A tracheotomy was performed and the animals were mechanically ventilated throughout the experiment. The ventilatory pressure was recorded and analyzed for signs of bronchospasm. A pulse oxymeter was attached to each animal's hind paw to obtain heart beat and oxygen saturation on the anaesthetized guinea pigs to continuously monitor the general condition of the animals during the surgical procedure. Following baseline measurements, three doses of histamine (0.184, 0.919 and 1.84 μg/kg) were nebulized (constant volume tidal, 60 respirations per minute, 7.5 ml/sec), with an interval of 20 minutes between each dose, or until a steady state was reached. Respiratory resistance, heart rate, and oxygen saturation were monitored continuously for a period of about 1 hour post challenge. At the end of the experiment, the animals were euthanized by exsanguination. Clampfit 10.2.0.14 analysis software (Axon Instruments), installed on networked personal computers running Microsoft Windows was used. Clampfit 10.2.0.14 has been fully validated in the connected context in which it was used. The graphics software for illustrations is Microsoft Office Excel 2007 installed on networked personal computers running Microsoft Windows. […]

The mark [1] stands for this setting: bambuterol 0.27 mg/kg/day gavage 7 days, nebulized histamine 0.184 (μg/kg).
The mark [2] stands for this setting: bambuterol 0.27 mg/kg/day gavage 7 days, nebulized histamine 0.919 (μg/kg).
[3] abbreviates: bambuterol 0.27 mg/kg/day gavage 7 days, nebulized histamine 1.84 (μg/kg).
The mark [4] stands for this setting: 15-HEPE 500 mg/kg/day gavage 7 days, nebulized histamine 0.184 (μg/kg).
[5] abbreviates: 15-HEPE 500 mg/kg/day gavage 7 days, nebulized histamine 0.919 (μg/kg).
Where [6] appears, read: 15-HEPE 500 mg/kg/day gavage 7 days, nebulized histamine 1.84 (μg/kg).

With `CN(C)C(=O)Oc1cc(OC(=O)N(C)C)cc(C(O)CNC(C)(C)C)c1` (stereo not shown) [Bambuterol, bambuterol, reference compound], under setting [1], the “Change from baseline Respiratory Resistance (ventilator pressure), Guinea pig #1” value (from here on “Change … Guinea pig #1”) is reported as 0.2759 mmHg; the “Change from baseline Respiratory Resistance (ventilator pressure), Guinea pig #2” value (from here on “Change … Guinea pig #2”) was −0.05857 mmHg; the “Change from baseline Respiratory Resistance (ventilator pressure), Guinea pig #3” value (from here on “Change … Guinea pig #3”) is 1.238 mmHg; the “Change from baseline Respiratory Resistance (ventilator pressure), Average VP” value (from here on “Change … Average VP”) was 0.48 mmHg. For the same compound, under setting [2], the “Change … Guinea pig #1” value is on record as 1.099 mmHg; the “Change … Guinea pig #2” value is 1.219 mmHg; the “Change … Guinea pig #3” value amounted to 2.266 mmHg; the “Change … Average VP” value is given as 1.53 mmHg. Also, under setting [3], the “Change … Guinea pig #1” value is 2.215 mmHg; the “Change … Guinea pig #2” value worked out at 1.945 mmHg; the “Change … Guinea pig #3” value is recorded as 2.651 mmHg; the “Change … Average VP” value was found to be 2.27 mmHg.

In the case of `CCC=CCC(O)C=CC=CCC=CCC=CCCCC(=O)O` (stereo not shown) [15-HEPE, 15-Hydroxy-eicosa-5,8,11,13,17-pentaenoic acid], under setting [4], the “Change … Guinea pig #1” value is reported as 0.2098 mmHg; the “Change … Guinea pig #2” value is reported as 1.657 mmHg; the “Change … Guinea pig #3” value came to 0.6489 mmHg; the “Change from baseline Respiratory Resistance (ventilator pressure), Average RR” value (“Change … Average RR” below) amounted to 0.84 mmHg. Besides, under setting [5], the “Change … Guinea pig #1” value is 0.8494 mmHg; the “Change … Guinea pig #2” value came out at 1.37 mmHg; the “Change … Guinea pig #3” value is recorded as 2.34 mmHg; the “Change … Average RR” value stood at 1.52 mmHg. Under setting [6], the “Change … Guinea pig #1” value worked out at 2.169 mmHg; the “Change … Guinea pig #2” value is listed as 1.791 mmHg; the “Change … Guinea pig #3” value came to 3.913 mmHg; the “Change … Average RR” value worked out at 2.62 mmHg. In addition, the lung ventilatory pressure result (test animals challenged with a bronchoconstrictor, result in words) is “improve lung ventilatory pressure”.
